The results in this text go back to patent US10745361B2, “Piperazine derivatives having multimodal activity against pain” (ESTEVE PHARMACEUTICALS, S.A., priority 2013, dated 2020).

Where only a bound is given, the exact number is not on record here.

This experiment has as its target human σ1 receptor and human μ-opioid receptor. The experiment is described as follows: Human σ1 receptor radioligand assay and human μ-opioid receptor radioligand assay (μ and σ1 dual binding). Set-up: key to μ and σ1 dual binding: +: Both Ki-μ and Ki-σ1>=500 nM; ++: One K, <500 nM while the other K, is >=500 nM; +++: Both Ki-μ and Ki-σ1<500 nM; ++++: Both Ki-μ and Ki-σ1<100 nM. The settings on record: one class for both Ki: σ1 ([3H](+)-pentazocine, transfected HEK-293 membranes) and μ-opioid ([3H]-DAMGO, transfected CHO-K1 membranes). As for the experimental part: Human σ1 Receptor Radioligand Assay
To investigate binding properties of σ1 receptor ligands to human σ1 receptor, transfected HEK-293 membranes and [^3H](+)-pentazocine (Perkin Elmer, NET-1056), as the radioligand, were used. The assay was carried out with 7 μg of membrane suspension, 5 nM of [^3H](+)-pentazocine in either absence or presence of either buffer or 10 μM Haloperidol for total and non-specific binding, respectively. Binding buffer contained Tris-HCl 50 mM at pH 8. Plates were incubated at 37° C. for 120 minutes. After the incubation period, the reaction mix was then transferred to MultiScreen HTS, FC plates (Millipore), filtered and plates were washed 3 times with ice-cold 10 mM Tris-HCL (pH7.4). Filters were dried and counted at approximately 40% efficiency in a MicroBeta scintillation counter (Perkin-Elmer) using EcoScint liquid scintillation cocktail
Human μ-Opioid Receptor Radioligand Assay
To investigate binding properties of p-opioid receptor ligands to human p-opioid receptor, transfected CHO-K1 cell membranes and [^3H]-DAMGO (Perkin Elmer, ES-542-C), as the radioligand, were used. The assay was carried out with 20 μg of membrane suspension, 1 nM of [^3H]-DAMGO in either absence or presence of either buffer or 10 μM Naloxone for total and non-specific binding, respectively. Binding buffer contained Tris-HCl 50 mM, MgCl2 5 mM at pH 7.4. Plates were incubated at 27° C. for 60 minutes. After the incubation period, the reaction mix was then transferred to MultiScreen HTS, FC plates (Millipore), filtered and plates were washed 3 times with ice-cold 10 mM Tris-HCL (pH 7.4). Filters were dried and counted at approximately 40% efficiency in a MicroBeta scintillation counter (Perkin-Elmer) using
EcoScint liquid scintillation cocktail.
The following scale as been adopted for representing the binding to the σ1 receptor and the μ-opiod receptor expressed as Ki: • + Both Ki-μ and Ki-σ1>=500 nM • ++ One K, <500 nM while the other K, is >=500 nM • +++ Both Ki-μ and Ki-σ1<500 nM • ++++ Both Ki-μ and Ki-σ1<100 nM
For `CC(C)S(=O)(=O)Nc1cccc(N2CCN(Cc3cn(-c4ccccc4)nn3)CC2)c1` [Example 1, N-(3-(4-((1-phenyl-1H-1,2,3-triazol-4-yl)methyl)piperazin-1-yl)phenyl)propane-2-sulfonamide], the Ki (in general, the dissociation constant of the complex between target and ligand, obtained from inhibition or displacement) was under 0.1 µM. As for `CC(C)S(=O)(=O)Nc1cccc(N2CCN(Cc3cn(-c4cncc(Cl)c4)nn3)CC2)n1` [Example 2, N-(6-(4-((1-(5-chloropyridin-3-yl)-1H-1,2,3-triazol-4-yl)methyl)piperazin-1-yl)pyridin-2-yl)propane-2-sulfonamide], the “μ and σ1 dual binding” value was “++”.

In the case of `CS(=O)(=O)Nc1cccc(N2CCN(Cc3cn(Cc4ccccc4)nn3)CC2)c1` [Example 3, N-(3-(4-((1-benzyl-1H-1,2,3-triazol-4-yl)methyl)piperazin-1-yl)phenyl)methanesulfonamide], the “μ and σ1 dual binding” value is “++”.

Compound `CS(=O)(=O)Nc1cccc(N2CCN(Cc3cn(-c4ccccc4)nn3)CC2)c1` [Example 4, N-(3-(4-((1-phenyl-1H-1,2,3-triazol-4-yl)methyl)piperazin-1-yl)phenyl)methanesulfonamide] returned a Ki of under 0.5 µM. With `Oc1cccc(N2CCN(Cc3cn(-c4ccccc4)nn3)CC2)c1` [Example 5, 3-(4-((1-phenyl-1H-1,2,3-triazol-4-yl)methyl)piperazin-1-yl)phenol], the “μ and σ1 dual binding” value is “++”. On to `Oc1cccc(N2CCN(Cc3cn(Cc4ccccc4)nn3)CC2)c1` [Example 6, 3-(4-((1-benzyl-1H-1,2,3-triazol-4-yl)methyl)piperazin-1-yl)phenol], for which the “μ and σ1 dual binding” value was “++”.

Consider `Oc1cccc(N2CCN(Cc3cn(-c4ccccn4)nn3)CC2)c1` [Example 7, 3-(4-((1-(pyridin-2-yl)-1H-1,2,3-triazol-4-yl)methyl)piperazin-1-yl)phenol], for which the “μ and σ1 dual binding” value is “++”. Take `CS(=O)(=O)Nc1cccc(N2CCN(Cc3cn(-c4ccc(C(F)(F)F)nc4)nn3)CC2)c1` [Example 8, N-(3-(4-((1-(6-(trifluoromethyl)pyridin-3-yl)-1H-1,2,3-triazol-4-yl)methyl)piperazin-1-yl)phenyl)methanesulfonamide]: the Ki is at least 0.5 µM. Compound `CC(C)S(=O)(=O)Nc1cccc(N2CCN(Cc3cn(-c4ccccc4F)nn3)CC2)c1` [Example 9, N-(3-(4-((1-(2-fluorophenyl)-1H-1,2,3-triazol-4-yl)methyl)piperazin-1-yl)phenyl)propane-2-sulfonamide] displayed a Ki of under 0.1 µM. As to `CCS(=O)(=O)Nc1cccc(N2CCN(Cc3cn(-c4ccccc4)nn3)CC2)c1` [Example 10, N-(3-(4-((1-phenyl-1H-1,2,3-triazol-4-yl)methyl)piperazin-1-yl)phenyl)ethanesulfonamide], the Ki was under 0.5 µM. As for `CS(=O)(=O)Nc1cccc(NC2CCN(Cc3cn(-c4ccccc4)nn3)C2)c1` (stereo not shown) [Example 11, N-(3-(1-((1-phenyl-1H-1,2,3-triazol-4-yl)methyl)pyrrolidin-3-ylamino)phenyl)methanesulfonamide], the Ki is under 0.5 µM. Same read-out and setting: in the case of `CS(=O)(=O)Nc1cccc(NC2CN(Cc3cn(-c4ccccc4)nn3)C2)c1` [Example 12, N-(3-(1-((1-phenyl-1H-1,2,3-triazol-4-yl)methyl)azetidin-3-ylamino)phenyl)methanesulfonamide] it was under 0.5 µM; in that of `CS(=O)(=O)Nc1cccc(N2CC3CN(Cc4cn(-c5ccccc5)nn4)CC3C2)c1` (stereo not shown) [Example 13, N-(3-(5-((1-phenyl-1H-1,2,3-triazol-4-yl)methyl)hexahydropyrrolo[3,4-c]pyrrol-2(1H)-yl)phenyl)methanesulfonamide], under 0.5 µM; in that of `CN(c1cccc(NS(C)(=O)=O)c1)C1CCN(Cc2cn(-c3ccccc3)nn2)C1` (stereo not shown) [Example 14, N-(3-(methyl(1-((1-phenyl-1H-1,2,3-triazol-4-yl)methyl)pyrrolidin-3-yl)amino)phenyl)methanesulfonamide], under 0.1 µM. Turning to `CN(c1cccc(NS(C)(=O)=O)c1)C1CN(Cc2cn(-c3ccccc3)nn2)C1` [Example 15, N-(3-(methyl(1-((1-phenyl-1H-1,2,3-triazol-4-yl)methyl)azetidin-3-yl)amino)phenyl)methanesulfonamide], the Ki was under 0.5 µM. For `CC(C)S(=O)(=O)Nc1cccc(N2CCN(Cc3cn(Cc4ccccn4)nn3)CC2)c1` [Example 16, N-(3-(4-((1-(pyridin-2-ylmethyl)-1H-1,2,3-triazol-4-yl)methyl)piperazin-1-yl)phenyl)propane-2-sulfonamide], the “μ and σ1 dual binding” value is reported as “++”. In turn, `CC(C)S(=O)(=O)Nc1cccc(N2CCN(Cc3cn(-c4ccccn4)nn3)CC2)c1` [Example 17, N-(3-(4-((1-(pyridin-2-yl)-1H-1,2,3-triazol-4-yl)methyl)piperazin-1-yl)phenyl)propane-2-sulfonamide] had a Ki of under 0.5 µM. On the same count and under the same terms, in the case of `O=S(=O)(Nc1cccc(N2CCN(Cc3cn(-c4ccccc4)nn3)CC2)c1)C(F)(F)F` [Example 18, 1,1,1-trifluoro-N-(3-(4-((1-phenyl-1H-1,2,3-triazol-4-yl)methyl)piperazin-1-yl)phenyl)methanesulfonamide] it was at least 0.5 µM.

In the case of `CC(C)S(=O)(=O)Nc1cccc(N2CCN(Cc3cn(-c4ccc(F)cn4)nn3)CC2)c1` [Example 19, N-(3-(4-((1-(5-fluoropyridin-2-yl)-1H-1,2,3-triazol-4-yl)methyl)piperazin-1-yl)phenyl)propane-2-sulfonamide], the “μ and σ1 dual binding” value is recorded as “++”.

`O=S(=O)(Nc1cccc(N2CCN(Cc3cn(-c4ccccc4)nn3)CC2)c1)C1CC1` [Example 20, N-(3-(4-((1-phenyl-1H-1,2,3-triazol-4-yl)methyl)piperazin-1-yl)phenyl)cyclopropanesulfonamide] returned a Ki of under 0.1 µM.

For `CC(C)S(=O)(=O)Nc1cccc(N2CCN(Cc3cn(-c4ncccc4F)nn3)CC2)c1` [Example 21, N-(3-(4-((1-(3-fluoropyridin-2-yl)-1H-1,2,3-triazol-4-yl)methyl)piperazin-1-yl)phenyl)propane-2-sulfonamide], the “μ and σ1 dual binding” value is recorded as “++”. For the compound `CC(C)S(=O)(=O)Nc1cccc(N2CCN(Cc3cn(-c4cc(F)ccn4)nn3)CC2)c1` [Example 22, N-(3-(4-((1-(4-fluoropyridin-2-yl)-1H-1,2,3-triazol-4-yl)methyl)piperazin-1-yl)phenyl)propane-2-sulfonamide], the “μ and σ1 dual binding” value was “++”. For the compound `CS(=O)(=O)Nc1cccc(N2[C@@H]3CC[C@H]2CN(Cc2cn(-c4ccccc4)nn2)C3)c1` [Example 23, N-(3-((1R,5S)-3-((1-phenyl-1H-1,2,3-triazol-4-yl)methyl)-3,8-diazabicyclo[3.2.1]octan-8-yl)phenyl)methanesulfonamide], the “μ and σ1 dual binding” value is “++”. Compound `CC(C)S(=O)(=O)Nc1cccc(N2CCN(Cc3cnn(-c4ccccn4)n3)CC2)c1` [Example 24, N-(3-(4-((2-(pyridin-2-yl)-2H-1,2,3-triazol-4-yl)methyl)piperazin-1-yl)phenyl)propane-2-sulfonamide] displayed a Ki of at least 0.5 µM. Consider `CS(=O)(=O)Nc1cccc(N2CCCN(Cc3cn(-c4ccccc4)nn3)CC2)c1` [Example 25, N-(3-(4-((1-phenyl-1H-1,2,3-triazol-4-yl)methyl)-1,4-diazepan-1-yl)phenyl)methanesulfonamide], for which the Ki is under 0.5 µM.
